According to US8183252B2, “Heterocyclic aspartyl protease inhibitors” (Schering Corporation, priority 2007, dated 2012):

Target: T1, Mature human Renin (Homo sapiens, UniProt P00797)
T1 construct: The prodomain of the recombinant human renin-V5-6His was removed by limited proteolysis using immobilized TPCK-trypsin to give mature-human renin; V5 (C); 6His (C); made in house
T1 sequence (P00797 67-406): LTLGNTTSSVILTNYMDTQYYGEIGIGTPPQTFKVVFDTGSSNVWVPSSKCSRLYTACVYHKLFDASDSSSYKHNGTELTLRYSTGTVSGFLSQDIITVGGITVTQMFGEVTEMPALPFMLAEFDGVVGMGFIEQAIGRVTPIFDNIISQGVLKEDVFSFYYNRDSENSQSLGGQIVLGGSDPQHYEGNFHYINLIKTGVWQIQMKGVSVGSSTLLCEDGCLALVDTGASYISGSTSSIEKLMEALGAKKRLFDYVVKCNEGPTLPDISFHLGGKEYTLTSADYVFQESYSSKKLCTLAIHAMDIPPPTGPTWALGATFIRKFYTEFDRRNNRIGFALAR
Assay: Human Mature Renin Enzyme Assay (FRET)
Assay type: biochemical
Conditions: 100 μM compound; percent decrease in renin induced fluorescence after 40 min at 30 degrees celsius
From the text: Human Renin was cloned from a human kidney cDNA library and C-terminally epitope-tagged with the V5-6His sequence into pCDNA3.1. pCNDA3.1-Renin-V5-6His was stably expressed in HEK293 cells and purified to >80% using standard Ni-Affinity chromatography. The prodomain of the recombinant human renin-V5-6His was removed by limited proteolysis using immobilized TPCK-trypsin to give mature-human renin. Renin enzymatic activity was monitored using a commercially available fluorescence resonance energy transfer (FRET) peptide substrate, RS-1 (Molecular Probes, Eugene, Oreg.) in 50 mM Tris-HCl pH 8.0, 100 mM NaCl, 0.1% Brij-35 and 5% DMSO buffer for 40 mins at 30 degrees celsius in the presence or absence of different concentrations of test compounds. Mature human Renin was present at approximately 200 nM. Inhibitory activity was defined as the percent decrease in renin induced fluorescence at the end of the 40 min incubation compared to vehicle controls and samples lacking enzyme.

SMILES	% inhibition of renin at 100 μM [%]
CN1C(=N)N[C@](CCC2CCCCC2)(C[C@H]2CCC[C@@H](Nc3cccnc3)C2)C1=O	68.8
CCC[C@H]1CN(Cc2ccc(CN3C(=N)N[C@](CCC4CCCCC4)(CC4CCCCC4)C3=O)cc2)C(=O)N1	76.9
CCC[C@H]1CN(Cc2ccc(CN3C(=N)NC(CCC4CCCCC4)(CC4CCCCC4)C3=O)cc2)C(=O)N1 (stereo partly drawn)	75.3
